This note sets out measurements from BindingDB's records for doi:10.1021/jm9707030 (Boehringer Ingelheim Pharmaceuticals, 1998).

Experiment [1] deals with T1, Gag-Pol polyprotein [600-1027,R876K]/[600-1155] (Human immunodeficiency virus 1, UniProt P03366, R876K).
T1 construct: 600-1027; 600-1155
In words: HIV-1 RT Assay.

Experiment [2] concerns the target T2, Gag-Pol polyprotein [600-1027,Y780C]/[600-1155,Y780C] (Human immunodeficiency virus 1, UniProt P03366, Y780C).
T2 construct: 600-1027; 600-1155
In words: HIV-1 RT Assay. The conditions noted are these: pH 7.8; 22 °C.

As a reminder, the IC50 is the point on the concentration scale where inhibition reaches its midpoint. Low values mean greater potency, high ones weaker potency. Regarding `CCN1c2ncc(COc3cc[n+]([O-])c(C)c3)cc2C(=O)N(C)c2ccc(Cl)nc21` [2-Chloro-5,11-dihydro-11-ethyl-5-methyl-8-((4-(2-methyl-1-oxo-pyridinyl))oxy)methyl-6H-dipyrido[3,2-b:2 ,3-e][1,4]diazepin-6-one], 100 nM corresponded to half-maximal inhibition in experiment [1] (IC50).

Consider `CCN1c2ncc(COc3ccccc3O)cc2C(=O)N(C)c2ccc(Cl)nc21` [5-chloro-2-ethyl-13-(2-hydroxyphenoxymethyl)-9-methyl-2,4,9,15-tetraazatricyclo[9.4.0.0^{3,8}]pentadeca-1(11),3,5,7,12,14-hexaen-10-one], for which the IC50 in experiment [1] (pH 7.8, 22 °C) worked out at 100 nM.

The molecule `CCN1c2ncc(CS(=O)(=O)c3ccccc3)cc2C(=O)N(C)c2ccc(Cl)nc21` [13-[(benzenesulfonyl)methyl]-5-chloro-2-ethyl-9-methyl-2,4,9,15-tetraazatricyclo[9.4.0.0^{3,8}]pentadeca-1(15),3(8),4,6,11,13-hexaen-10-one] gave an IC50 in experiment [1] of 100 nM.

As for `CCN1c2ncc(CNc3cccc(N)c3)cc2C(=O)N(C)c2ccc(Cl)nc21` [13-{[(3-aminophenyl)amino]methyl}-5-chloro-2-ethyl-9-methyl-2,4,9,15-tetraazatricyclo[9.4.0.0^{3,8}]pentadeca-1(11),3,5,7,12,14-hexaen-10-one], the IC50 in experiment [2] stood at 100 nM.
